In patent US5015737A, “Therapeutically useful beta-lactams” (The Upjohn Company, priority 1990, dated 1991):
In brackets after ≈: the same amount, converted by molar mass. Read-outs that look alike come from different tables or passages of the source.

Tests used:
Assay in all cases: MIC determination by agar dilution (Mueller Hinton Agar)
Format in all cases: cell-based
Klebsiella oxytoca = details: 20 h, read-out: Minimum Inhibitory Concentration
Procedure: (§1) The compounds of this invention and their respective pharmaceutically acceptable salts have antibiotic activity against a variety of gram-negative bacteria including Escherichia coli, Klebsiella pneumoniae and Pseudomonas aeruginosa. The compounds are useful for treating bacterial infections in animals, including and most preferably humans. Compounds of the invention are tested for in vitro antimicrobial activity using standard testing procedures such as the determination of minimum inhibitory concentration (MIC) by methods described in "Methods for Dilution Antimicrobial Susceptibility Tests for Bacteria That Grow Aerobically" (M7-A) Published December 1985 by the National Committee for Clinical Laboratory standards, 771 East Lancaster Avenue, Villanova, Pa., 19084. Briefly, MIC values are determined in unsupplemented Mueller Hinton Agar (MHA). The compounds tested are diluted serially into molten MHA at 47° C. The agar is poured into petri dishes and allowed to harden. The various bacteria used for testing are grown overnight on MHA at 35° C. and transferred to Tryptiease Soy Broth (TSB) until a turbidity of 0.5 McFarland standard is obtained. The bacteria are diluted one to twenty in TSB and inoculated on the plates (1 μl using a Steers replicator). […] The MIC test results of four typical compounds of this invention.

Klebsiella pneumoniae = details: Culture Number 58, 35° C., 20 hours, read-out: Minimum Inhibitory Concentration
Procedure: as §1

Streptococcus pyogenes = details: Culture Number 152, 35° C., 20 hours, read-out: Minimum Inhibitory Concentration
Procedure: as §1

Serratia marcescens = details: Culture Number 6888, 35° C., 20 hours, read-out: Minimum Inhibitory Concentration
Procedure: as §1

Pseudomonas aeruginosa = details: 20 h, read-out: Minimum Inhibitory Concentration
Procedure: as §1

Staphylococcus epidermis = details: Culture Number 30031, 35° C., 20 hours, read-out: Minimum Inhibitory Concentration
Procedure: as §1

Escherichia coli = details: 20 h, read-out: Minimum Inhibitory Concentration
Procedure: as §1

Streptococcus pneumoniae = details: Culture Number 41, 35° C., 20 hours, read-out: Minimum Inhibitory Concentration
Procedure: as §1

Staphylococcus aureus = details: 35° C., 20 hours; for MIC: Staphylococcus aureus, read-out: Minimum Inhibitory Concentration
Procedure: as §1

Enterobacter cloacae = details: 20 h, read-out: Minimum Inhibitory Concentration
Procedure: as §1

Proteus vulgaris = details: Culture Number 9679, 35° C., 20 hours, read-out: Minimum Inhibitory Concentration
Procedure: as §1

Citrobacter freundii = details: Culture Number 3507, 35° C., 20 hours, read-out: Minimum Inhibitory Concentration
Procedure: as §1

Streptococcus faecalis = details: Enterococcus faecalis, 35° C., 20 hours, read-out: Minimum Inhibitory Concentration
Procedure: as §1

Acinetobacter sp. = details: Culture Number 30278, 35° C., 20 hours, read-out: Minimum Inhibitory Concentration
Procedure: as §1

[1] = tested on: Acinetobacter calcoaceticus; details: Culture Number 12170, 35° C., 20 hours, read-out: Minimum Inhibitory Concentration
Procedure: as §1

| MIC (Klebsiella oxytoca; Culture Number 9383, 35° C.) [µg/mL] | MIC (Klebsiella oxytoca; Culture Number 9384, 35° C.) [µg/mL] | MIC (Klebsiella pneumoniae) [µg/mL] | MIC (Streptococcus pyogenes) [µg/mL] | MIC (Serratia marcescens) [µg/mL] | MIC (Pseudomonas aeruginosa; Culture Number 231, 35° C.) [µg/mL] | MIC (Pseudomonas aeruginosa; Culture Number 9191, 35° C.) [µg/mL] | MIC (Escherichia coli; Culture Number 9379, 35° C.) [µg/mL] | MIC (Escherichia coli; Culture Number 9380, 35° C.) [µg/mL] | MIC (Escherichia coli; Culture Number 9451, 35° C.) [µg/mL] | MIC (Streptococcus pneumoniae) [µg/mL] | MIC (Staphylococcus aureus; Culture Number 9218) [µg/mL] | MIC (Enterobacter cloacae; Culture Number 9381, 35° C.) [µg/mL] | MIC (Enterobacter cloacae; Culture Number 9382, 35° C.) [µg/mL] | MIC (Proteus vulgaris) [µg/mL] | MIC (Citrobacter freundii) [µg/mL] | MIC (Pseudomonas aeruginosa; Culture Number 6676, 35° C.) [µg/mL] | MIC [1] [µg/mL] | SMILES | Minimum Inhibitory Concentration (Staphylococcus aureus; Culture Number 6685) [µg/mL] | Minimum Inhibitory Concentration (Staphylococcus aureus; Culture Number 9213) [µg/mL] | also measured |
| --- | --- | --- | --- | --- | --- | --- | --- | --- | --- | --- | --- | --- | --- | --- | --- | --- | --- | --- | --- | --- | --- |
| 0.125 (≈ 0.183 µM) | 0.06 (≈ 0.0876 µM) | 0.5 (≈ 0.73 µM) | 64 (≈ 93.5 µM) | 0.03 (≈ 0.0438 µM) | 0.25 (≈ 0.365 µM) | 0.25 (≈ 0.365 µM) | < 0.008 | < 0.008 | < 0.008 | > 64 | > 64 | 8 (≈ 11.7 µM) | 1 (≈ 1.46 µM) | 0.06 (≈ 0.0876 µM) | 0.03 (≈ 0.0438 µM) | – | – | CC(C)(O/N=C(\C(=O)N[C@H]1CN(C(=O)NS(=O)(=O)N[C@H]2CN(C(=O)c3cc(=O)c(O)c[nH]3)NC2=O)C1=O)c1csc(N)n1)C(=O)O [60(b), 3(S)-3-[2-(2-Amino-4-thiazoyl)-Z-(2)-(carboxyisopropyloxyimino)acetamido]-1-[(3-hydroxy-4-pyridon-6-yl)-1-carbonyl-pyrazolidinone-4-(S)-amino]-sulfonyl-amino-carbonyl-2-azetidinone] | > 64 | > 64 | MIC (Staphylococcus epidermis): > 64 µg/mL; Minimum Inhibitory Concentration (Staphylococcus aureus; Culture Number 3665): > 64 µg/mL; MIC (Streptococcus faecalis; Culture Number 694): > 64 µg/mL |
| 0.125 (≈ 0.183 µM) | 0.125 (≈ 0.183 µM) | 0.5 (≈ 0.73 µM) | > 64 | 0.03 (≈ 0.0438 µM) | 0.25 (≈ 0.365 µM) | 0.125 (≈ 0.183 µM) | 0.015 (≈ 0.0219 µM) | < 0.008 | 0.015 (≈ 0.0219 µM) | > 64 | 64 (≈ 93.5 µM) | 4 (≈ 5.84 µM) | 1 (≈ 1.46 µM) | 0.06 (≈ 0.0876 µM) | 0.06 (≈ 0.0876 µM) | 2 (≈ 2.92 µM) | – | CC(C)(O/N=C(\C(=O)N[C@H]1CN(C(=O)NS(=O)(=O)N[C@@H]2CN(C(=O)c3cc(=O)c(O)c[nH]3)NC2=O)C1=O)c1csc(N)n1)C(=O)O [60(d), 3(S)-3-[2-(2-Amino-4-thiazolyl)-Z-(2)(carboxyisopropyloxyimino)-acetamido]-1-[(3-hydroxy-4-pyridon-6-yl)-1-carbonyl-pyrazolidinone-4(R)-amino]-sulfonyl-aminocarbonyl-2-azetidinone] | – | – | MIC (Acinetobacter sp.): 1 µg/mL (≈ 1.46 µM) |
| 0.25 (≈ 0.358 µM) | 0.06 (≈ 0.0859 µM) | 0.5 (≈ 0.716 µM) | > 64 | 0.06 (≈ 0.0859 µM) | 0.125 (≈ 0.179 µM) | 0.125 (≈ 0.179 µM) | 0.03 (≈ 0.0429 µM) | < 0.008 | < 0.008 | > 64 | – | 8 (≈ 11.5 µM) | 2 (≈ 2.86 µM) | 0.06 (≈ 0.0859 µM) | 0.03 (≈ 0.0429 µM) | 0.5 (≈ 0.716 µM) | 2 (≈ 2.86 µM) | C[C@H]1[C@H](NS(=O)(=O)NC(=O)N2C[C@H](NC(=O)/C(=N\OC(C)(C)C(=O)O)c3csc(N)n3)C2=O)C(=O)NN1C(=O)c1cc(=O)c(O)c[nH]1 [60(m), 3(S)-3-[2 (2-amino-4-thiazoyl)-Z-(2)(carboxyisopropyloxyimino)-acetamido]-1-[(3-hydroxy-4-pyridon-6-yl) 1-carbonyl-5(S)-methyl-pyrazolidinone-4(S)-amino]-sulfonylaminocarbonyl-2-azetidinone] | > 64 | > 64 | MIC (Escherichia coli; Culture Number 9952, 35° C.): 0.015 µg/mL (≈ 0.0215 µM); Minimum Inhibitory Concentration (Staphylococcus aureus; Culture Number 9218): > 64 µg/mL; MIC (Staphylococcus aureus; Culture Number 3665): > 64 µg/mL; MIC (Streptococcus faecalis; Culture Number 9217): > 64 µg/mL |
| 0.125 (≈ 0.179 µM) | 0.06 (≈ 0.0859 µM) | 0.5 (≈ 0.716 µM) | > 64 | 0.06 (≈ 0.0859 µM) | 0.125 (≈ 0.179 µM) | 0.06 (≈ 0.0859 µM) | 0.03 (≈ 0.0429 µM) | 0.015 (≈ 0.0215 µM) | 0.015 (≈ 0.0215 µM) | > 64 | – | 8 (≈ 11.5 µM) | 2 (≈ 2.86 µM) | 0.06 (≈ 0.0859 µM) | 0.06 (≈ 0.0859 µM) | 0.25 (≈ 0.358 µM) | 1 (≈ 1.43 µM) | C[C@H]1[C@@H](NS(=O)(=O)NC(=O)N2C[C@H](NC(=O)/C(=N\OC(C)(C)C(=O)O)c3csc(N)n3)C2=O)C(=O)NN1C(=O)c1cc(=O)c(O)c[nH]1 [60(p), 3(S)-3-[2-(2-amino-4-thiazoyl)-Z-(2)-(carboxyisopropyloxyimino)-acetamido]-1-[(3-hydroxy-4-pyridon-6-yl)-1-carbonyl-5(S)-methyl-pyrazolidinone-4(R)-amino]-sulfonylaminocarbonyl-2-azetidinone] | > 64 | > 64 | MIC (Escherichia coli; Culture Number 9952, 35° C.): 0.015 µg/mL (≈ 0.0215 µM); Minimum Inhibitory Concentration (Staphylococcus aureus; Culture Number 9218): > 64 µg/mL; MIC (Staphylococcus aureus; Culture Number 3665): > 64 µg/mL; MIC (Streptococcus faecalis; Culture Number 9217): > 64 µg/mL |
